pKi: −log10 of the molar value.

In experiment [1] the target is T1, Phenylethanolamine N-methyltransferase (Bos taurus, UniProt P10938).
T1 sequence (P10938 whole entry): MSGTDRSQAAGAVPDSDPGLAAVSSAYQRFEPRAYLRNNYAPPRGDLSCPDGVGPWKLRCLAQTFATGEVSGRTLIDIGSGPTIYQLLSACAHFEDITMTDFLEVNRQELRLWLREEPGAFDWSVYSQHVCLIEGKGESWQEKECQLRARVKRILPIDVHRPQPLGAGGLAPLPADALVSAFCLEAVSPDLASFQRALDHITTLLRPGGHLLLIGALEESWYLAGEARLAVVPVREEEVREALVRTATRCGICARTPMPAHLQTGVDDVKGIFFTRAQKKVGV
The experiment in a line: Inhibition constant was evaluated against PNMT.

Experiment [2] addresses Histamine N-methyltransferase (Cavia porcellus) (UniProt Q9EST2). The experiment in a line: Inhibition of Histamine N-methyl-transferase at 2.0 mM.
For experiment [3], the target named is T2, Phenylethanolamine N-methyltransferase (Bos taurus) (UniProt P10938).
T2 sequence (whole entry): T1 sequence (P10938 whole entry)
The experiment in a line: Inhibition of PNMT at 0.2 mM.

Experiment [4] deals with T3, Catechol O-methyltransferase (Rattus norvegicus) (UniProt P22734).
T3 sequence (whole entry): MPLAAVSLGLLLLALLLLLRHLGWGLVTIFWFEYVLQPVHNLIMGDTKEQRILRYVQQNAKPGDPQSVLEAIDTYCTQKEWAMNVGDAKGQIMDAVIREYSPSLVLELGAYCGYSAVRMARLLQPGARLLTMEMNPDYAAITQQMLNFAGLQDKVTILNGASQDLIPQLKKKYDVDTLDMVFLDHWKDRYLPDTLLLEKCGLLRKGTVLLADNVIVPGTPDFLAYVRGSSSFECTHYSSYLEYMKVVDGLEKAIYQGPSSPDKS
The experiment in a line: Inhibition of Catechol O-methyltransferase at 2.0 mM.

For experiment [5], the target named is Histamine N-methyltransferase (Cavia porcellus) (UniProt Q9EST2). The experiment in a line: Inhibition of Histamine N-methyl-transferase at 0.2 mM.
In experiment [6] the target is T2, Phenylethanolamine N-methyltransferase (Bos taurus). The experiment in a line: Inhibition of PNMT at 2.0 mM.
The target in experiment [7] is T3, Catechol O-methyltransferase (Rattus norvegicus). The experiment in a line: Inhibition of Catechol O-methyltransferase at 0.2 mM.

Histamine N-methyltransferase (Cavia porcellus), sequence (Q9EST2 whole entry): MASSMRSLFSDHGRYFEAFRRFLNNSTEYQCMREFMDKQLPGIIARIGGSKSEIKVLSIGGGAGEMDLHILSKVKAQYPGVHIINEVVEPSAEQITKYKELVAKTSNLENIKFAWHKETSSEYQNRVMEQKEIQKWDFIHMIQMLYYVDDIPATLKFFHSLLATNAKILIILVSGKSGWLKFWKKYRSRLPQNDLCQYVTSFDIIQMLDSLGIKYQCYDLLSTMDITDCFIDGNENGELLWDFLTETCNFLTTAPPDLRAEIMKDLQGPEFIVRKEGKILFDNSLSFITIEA

For orientation: pKi means −log10 of the Ki, conventionally taken in molar units. In the case of `Nc1ncnc2c1ncn2[C@@H]1O[C@H](CSCC[C@H](N)C(=O)O)[C@@H](O)[C@H]1O` (stereo in doubt; 9) [S-ADENOSYLHOMOCYSTEINE], the pKi in experiment [1] was 4.21.
The same measure, in the same setting: for `Nc1ncnc2c1ncn2[C@@H]1O[C@H](CSCC[C@H](N)C(=O)O)[C@@H](O)[C@H]1O` (stereo in doubt; 5) [S-ADENOSYLHOMOCYSTEINE] the value was 4.54.
By inhibition is commonly meant the change of the read-out against control, counted positive when it falls. Turning to `Nc1ncnc2c1ncn2[C@@H]1O[C@H](C[S+]([O-])CCC(N)C(=O)O)[C@@H](O)[C@H]1O` (some centres undefined), the inhibition in experiment [2] worked out at 9%; in experiment [3], 10%; in experiment [4] it was 42%; in experiment [5], 0%; in experiment [6], 22%; in experiment [7], 14%.
With `CNc1ncnc2c1ncn2C1O[C@H](CSCCC(N)C(=O)O)[C@@H](O)[C@H]1O` (some centres undefined), the inhibition in experiment [2] turned out to be 28%; in experiment [3] it was 11%; in experiment [4], 55%; in experiment [5] it was 11%; in experiment [6], 42%; in experiment [7], 15%.

The values are drawn from ChEMBL document CHEMBL1122976, “Potential inhibitors of S-adenosylmethionine-dependent methyltransferases. 10. Base- and amino acid modified analogues of S-aristeromycinyl-L-homocysteine” (J Med Chem, 1985).
